# According to patent US20240100065A1, “METHODS FOR TREATING RECEPTOR-INTERACTING PROTEIN KINASE 1-MEDIATED DISEASES” (Genzyme Corporation, priority 2022, published 2024):
# Where “and” joins values, the source holds several entries; their conditions need not be identical. Identical values can stand only once.
# Tests used:
# pRIPK1 = target: T1, pRIPK1 (Homo sapiens, UniProt Q13546); test: Population PK/PD analysis of pRIPK1; assay type: in vivo
# T1 construct: Human PBMC are a primary cell type that express endogenous RIPK kinase; endogenous in cells; host or cells: human PBMC isolated from blood of healthy participants
# T1 sequence (Q13546 1-671): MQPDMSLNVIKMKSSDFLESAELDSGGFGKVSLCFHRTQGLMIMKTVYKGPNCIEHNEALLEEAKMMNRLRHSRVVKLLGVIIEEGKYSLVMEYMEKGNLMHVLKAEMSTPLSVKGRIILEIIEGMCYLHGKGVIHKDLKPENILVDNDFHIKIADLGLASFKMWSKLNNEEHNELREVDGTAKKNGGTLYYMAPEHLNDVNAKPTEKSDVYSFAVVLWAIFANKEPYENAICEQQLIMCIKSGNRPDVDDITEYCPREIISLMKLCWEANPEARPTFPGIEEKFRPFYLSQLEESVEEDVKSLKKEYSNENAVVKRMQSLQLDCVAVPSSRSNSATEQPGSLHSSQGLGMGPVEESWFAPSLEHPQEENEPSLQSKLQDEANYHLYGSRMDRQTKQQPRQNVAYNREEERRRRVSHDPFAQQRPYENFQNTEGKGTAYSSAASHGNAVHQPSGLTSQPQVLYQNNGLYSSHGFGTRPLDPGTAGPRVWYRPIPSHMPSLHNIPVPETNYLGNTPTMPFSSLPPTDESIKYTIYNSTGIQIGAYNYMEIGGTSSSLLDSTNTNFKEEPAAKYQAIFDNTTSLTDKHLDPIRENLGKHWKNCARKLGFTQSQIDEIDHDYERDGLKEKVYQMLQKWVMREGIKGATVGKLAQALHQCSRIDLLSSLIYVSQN
# Method: An exploratory population pharmacokinetic/pharmacodynamic analysis of phosphorylated receptor-interacting protein kinase 1(pRIPK1) in healthy participants after single (SAD) and repeated (MAD) administrations of Compound 1 was carried out to develop a population PK/PD model from data after single and repeated doses in healthy adults and to derive individual parameters for each dose cohort.
# The population PK/PD analysis was performed using the stochastic approximation expectation maximization (SAEM) algorithm for nonlinear mixed-effects models implemented in MONOLIX software (R1 2020). The observed plasma concentrations were used to develop the model with plasma concentrations from placebo participants and blow limit of quantitation (BLQ) plasma concentrations from verum participants being fixed to zero. Classical direct and indirect inhibitory models were evaluated. Model selection was based on objective function value Akaike and Bayesian Information criteria as well as standard goodness-of-fit plots (Psychol Methods. 2012 June; 17(2):228-43; Pharmaceutics. 2020 June; 12(6): 578.). From selected final population PK/PD model, individual PD parameters were derived and summarized by descriptive statistical analyses by study and dose level.
# A total of 433 samples in 70 participants was considered (101, 121 and 211 samples after placebo, single dose and repeated doses, respectively). No data from potential outliers were excluded. In placebo participants, a very large inter-cohort and inter-individual variability was observed. […] Selection of structural PK/PD model confirmed that a direct relationship best described the data overall.
# CYP3A4 = test: Plasma 4β-hydroxycholesterol Day 14/Day 1 ratio (CYP3A4 induction); assay type: in vivo, human; conditions: repeated doses up to 20 mg BID, 14 days
# Method: The plasma 4β-hydroxycholesterol on Day 14 versus Day 1 pre-dose concentration ratios were calculated to evaluate the potential for CYP3A4 enzyme induction by Compound 1 after repeated doses in Part 2.
# PK population included all participants exposed to Compound 1 with no major or critical deviations related to Compound 1 and for whom PK data were considered sufficient and interpretable. PK parameters were summarized by descriptive statistics for each dose level group. Distribution of Tmax values was represented by histogram plots for each dose level group. In Part 1a, dose proportionality was assessed using a linear model on Cmax, AUClast and AUC. […] Steady state was assessed on Ctrough using a non-linear model. Accumulation was assessed using a linear model on log-transformed accumulation ratio. Dose proportionality was assessed using a power model on Cmax and AUCtau on Day 1 and Day 14, separately. […] In Part 1b, CSF concentration was described by dose level group and CSF to plasma unbound concentration ratios calculated were described in the same way. 4β-hydroxycholesterol on Day 14 versus Day 1 pre-dose concentration ratios were summarized using descriptive statistics by dose level group and point estimates with 90% confidence interval (90% CI) for the geometric mean of the log-transformed Day14/Day1 ratio was calculated in Part 2. […]
compound,measurement,setting,value
"CC(C)(C(=O)N1CCOc2c(C#N)cncc2C1)C(F)F [Compound 1, 4-(3,3-difluoro-2,2-dimethyl-propanoyl)-3,5-dihydro-2H-pyrido[3,4-f] [1,4]oxazepine-9-carbonitrile]","EC91, plasma conc for 91% decrease in E0",pRIPK1; derived typical value,23.9 ng/mL
same,"EC92, plasma conc for 92% decrease in E0",pRIPK1; derived typical value,30.7 ng/mL
same,"EC93, plasma conc for 93% decrease in E0",pRIPK1; derived typical value,43.3 ng/mL
same,"EC94, plasma conc for 94% decrease in E0",pRIPK1; derived typical value,76.1 ng/mL
same,"EC95, plasma conc for 95% decrease in E0",pRIPK1; derived typical value,0.6 µg/mL
same,EC50,"pRIPK1; derived typical value, read-out: EC50, plasma conc for 50% decrease in E0 (converted)",6.2 nM
same,EC90,"pRIPK1; derived typical value, read-out: EC90, plasma conc for 90% decrease in E0",0.0197 µg/mL
same,0(Gamma),pRIPK1; population PK/PD model,49.5%
same,"E0, baseline effect",pRIPK1; population PK/PD model,8541 AU_signal
same,σprop,pRIPK1; population PK/PD model,44.5%
same,ω(E0),pRIPK1; population PK/PD model,73.7%
same,ω(IC50),pRIPK1; population PK/PD model,71.4%
same,ω(Imax),pRIPK1; population PK/PD model,192%
same,Gamma,"pRIPK1; population PK/PD model, sigmoidal Imax",1.17
same,"Imax, maximum inhibitory effect on pRIPK1","pRIPK1; population PK/PD model, typical value, SAD and MAD data",95.1% and 95%
same,IC50,"pRIPK1; population PK/PD model, typical value, SAD and MAD data, read-out: IC50, plasma concentration needed for 50% of Imax (pRIPK1) (converted)",5.69 nM
same,Potential for CYP3A4 induction,CYP3A4,no potential for CYP3A4 induction
